Numbered stars: 1 amine (or outer) side, 2 acyl side, 3 side chain; on linkers, the order of the positions; unused ones are H or OH. Bridge positions count the residues as written; N and C are the ends. Side chains are listed from the residue outwards. Peptide text beside a SMILES is read from it. * marks the point of attachment. C20 diacid = O=C(O)CCCCCCCCCCCCCCCCCCC(=O)*; γGlu = O=C(O)[C@H](CCC(=O)[*:2])N[*:1]

For one series, the system named is Male Wistar rats. Briefly: ASSAY (XII) effect from single subcutaneous administration on plasma calcium in rats. Type of series: in vivo, rat. As to conditions: single s.c., 30 nmol/kg, 0-12 h, compared to vehicle. The essentials: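 Male Wistar rats (~250 g), groups of five, received a single subcutaneous dose at time 0. Blood drawn at −15 min, 1, 2, 4, 7, 12 and 24 h; total calcium measured in heparin plasma, reported as mean±SEM.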

Another series concerns Male Sprague-Dawley rats. Briefly: ASSAY (XI) single subcutaneous administration, food intake monitored for 48 hours in rats. Type of series: in vivo, rat. As to conditions: 30 nmol/kg. Summed up: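 Male Sprague-Dawley rats from Taconic Europe, weighing about 250 g on the test day, were singly housed in an online food intake monitoring system (Ellegaard MBRose, Denmark). Before the study they were acclimatized to a reversed light cycle, with lights on from 10 PM to 10 AM. Each rat then received one subcutaneous dose of the analogue, and data are reported as mean±SEM.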

The target of series [1] is T1, human calcitonin (a) receptor in BHK570 cells (Homo sapiens, UniProt P30988).
T1 construct: expressed in transfected cells
T1 sequence (P30988 25-474): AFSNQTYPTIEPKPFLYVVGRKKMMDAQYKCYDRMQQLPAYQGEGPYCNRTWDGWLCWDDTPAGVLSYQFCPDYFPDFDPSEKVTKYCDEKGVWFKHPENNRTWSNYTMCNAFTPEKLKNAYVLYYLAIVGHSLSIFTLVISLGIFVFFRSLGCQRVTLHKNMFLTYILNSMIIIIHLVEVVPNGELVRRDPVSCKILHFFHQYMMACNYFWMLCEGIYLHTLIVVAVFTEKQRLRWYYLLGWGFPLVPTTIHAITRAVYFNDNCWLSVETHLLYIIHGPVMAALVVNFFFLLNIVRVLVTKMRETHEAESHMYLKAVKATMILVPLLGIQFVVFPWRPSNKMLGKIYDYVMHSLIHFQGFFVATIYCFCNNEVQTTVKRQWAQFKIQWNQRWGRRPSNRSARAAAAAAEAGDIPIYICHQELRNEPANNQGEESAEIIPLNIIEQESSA
Briefly: ASSAY (II)a functional assay, human calcitonin receptor (CRE luciferase). The series is classed as cell-based. As to conditions: read-out: hCTR funct. EC50. The essentials:
(§1)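 Receptor activation is measured as cAMP-driven CRE-luciferase expression in BHK cells expressing the calcitonin receptor, with RAMP-3 co-expressed to form the amylin 3(a) receptor. Cells are exposed to compound for 3 hours at 37° C, and luciferase is then quantified by luminescence.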

Series [2] concerns the target T2, human amylin 3(a) receptor (human calcitonin receptor + RAMP-3) in BHK570 cells (Homo sapiens, UniProt O60896+P30988).
T2 construct: expressed in transfected cells
Briefly: ASSAY (II)a functional assay, human amylin receptor (CRE luciferase). The series is classed as cell-based. The essentials: as §1

The nature of series [3]: ASSAY (X) pK, determination of T½ in rat. Type of series: in vivo. As to conditions: male, Sprague Dawley, plasma, iv, 20 nmol/kg.
A short description of series [4]: ASSAY (IX) pK, determination of T½ in mini-pig. The series is classed as in vivo. As to conditions: male, Göttingen, minipig, plasma, iv, 2 nmol/kg.
The target in series [5] is T3, human calcitonin receptor (Homo sapiens, UniProt P30988).
T3 construct: expressed in transfected cells
T3 sequence (P30988 25-474): T1 sequence (P30988 25-474)
The experiment in a line: ASSAY (VII) binding to the human calcitonin receptor (SPA, 125I-Calcitonin).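 Also: cell membranes (35 ng/µL) combined with SPA beads in 40 µL of pH 7.4 Hepes buffer, 384-well format, signal counted on a TopCounter instrument.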 As to conditions: read-out: hCTR bind IC50.

T2 sequence (O60896 24-148, one chain of several): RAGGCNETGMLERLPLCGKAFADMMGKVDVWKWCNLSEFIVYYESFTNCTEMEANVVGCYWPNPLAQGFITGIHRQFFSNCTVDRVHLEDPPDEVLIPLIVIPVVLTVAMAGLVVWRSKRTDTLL

Take `CC[C@H](C)[C@H](NC(=O)[C@H](C)NC(=O)CNC(=O)[C@H](Cc1ccccc1)NC(=O)[C@H](CC(N)=O)NC(=O)[C@@H]1CCCN1C(=O)[C@H](CO)NC(=O)[C@H](CO)NC(=O)[C@H](Cc1c[nH]cn1)NC(=O)[C@H](CCCNC(=N)N)NC(=O)[C@H](CC(C)C)NC(=O)[C@H](Cc1ccccc1)NC(=O)[C@H](CCC(=O)O)NC(=O)[C@H](C)NC(=O)[C@H](CC(C)C)NC(=O)[C@H](CCCNC(=N)N)NC(=O)[C@H](CCC(N)=O)NC(=O)[C@@H](NC(=O)[C@H](C)NC(=O)[C@@H]1CSSC[C@H](NC(=O)[C@@H](N)CCCCNC(=O)CC[C@H](NC(=O)CC[C@H](NC(=O)CCCCCCCCCCCCCCCCCCC(=O)O)C(=O)O)C(=O)O)C(=O)N[C@@H](CC(N)=O)C(=O)N[C@@H]([C@@H](C)O)C(=O)N[C@@H](C)C(=O)N[C@@H]([C@@H](C)O)C(=O)N1)[C@@H](C)O)C(=O)N1CCC[C@H]1C(=O)N[C@@H](CO)C(=O)N[C@@H](CO)C(=O)N[C@H](C(=O)N[C@@H](CC(N)=O)C(=O)N[C@H](C(=O)NCC(=O)N1CCC[C@H]1C(=O)N[C@@H](CCC(=O)O)C(=O)N[C@H](C(=O)N[C@@H](Cc1ccc(O)cc1)C(N)=O)[C@@H](C)O)C(C)C)[C@@H](C)O` [Example 106] (H-K([γGlu-γGlu-C20 diacid])CNTATCATQRLAEFLRHSSPNFGAIPSSTNVGPETY-NH2; disulfide 2-7; N-terminus assumed): in the series with Male Wistar rats, the “Plasma calcium red (%) 0-12 h (maximal)” value is 6%. The “Food intake red (%) 0-24 h” value in the series with Male Sprague-Dawley rats (single s.c., 0-24 h, compared to vehicle) amounted to 63%. In the series on Male Sprague-Dawley rats (single s.c., 24-48 h, compared to vehicle), the “Food intake red (%) 24-48 h” value is listed as 69%. Also, the “food intake monitored over 48 hours” value in the series with Male Sprague-Dawley rats (single subcutaneous administration, versus vehicle) is listed as “reduce food intake”. For the same molecule, the EC50 (commonly the concentration needed to bring the measured effect to its halfway point) came to 2.36 nM in series [1] and 0.225 nM in series [2] (human amylin receptor functional potency, assay (II), read-out: hAmylin-R funct. EC50). In addition, the “Ratio hCT/hAmylin funct.” value in series [2] (hCTR funct. EC50 divided by hAmylin-R funct. EC50), in series [2] (hCTR funct. EC50 over hAmylin-R funct. EC50) and in series [2] (human functional selectivity: hCTR funct. EC50 / hAmylin-R funct. EC50) was 10.5 in each case. The half-life – broadly, the time needed for the level to fall by half in the phase considered – in series [3] is 37 h; in series [4], 49 h. The IC50 (in general, the concentration that inhibits the measured activity by half) in series [5] worked out at 2.14 nM.

(Values after patent publication US9023789B2, “Amylin analogs and pharmaceutical compositions thereof” (Novo Nordisk A/S, priority 2012, dated 2015).)
